From PubChem BioAssay (NCI)
Where “and” joins values, the source holds several entries; their conditions need not be identical. Equal values may be shown once.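 Briefly, cells in 96-well plates were exposed to five compound concentrations for 48 h, and endpoints were estimated by linear interpolation. Here, GI50 denotes the concentration required for 50% inhibition of growth. Definition used: TGI = concentration required for complete inhibition of growth.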 Where a SMILES comes first, the peptide text is derived from it. [ ]: non-standard residue; d: D form. Phe(ol) = N[C@H](CO)Cc1ccccc1; Aib = CC(C)(N)C(=O)O

System: MDA-MB-468 breast
Experiment: inhibition of tumour cell growth, NCI panel, 48 h

First: Nc1nc(SCC#CCCl)c2[nH]cnc2n1
Second: ClC/C=C/CSc1ncnc2nc[nH]c12
The GI50 of the first is lower: 1.88 µM for the first, over 100 µM for the second.

First: Oc1ccccc1/C=N\NC(=S)Nc1ccc(F)cc1
Second: NS(=O)(=O)c1cccc(Nc2cc(-c3ccc(F)cc3)[nH]n2)c1
The GI50 of the first is lower: 2.53 µM for the first, over 23.6 µM for the second.

Compared with `Cc1ccc(C)c(N2CCN(c3ccncc3N)CC2)c1`, `CN1CCN(Cc2ccc(NC(=O)c3cncc(C#Cc4c(N)ncc5ccccc45)c3)cc2C(F)(F)F)CC1` is 4.2-fold lower in GI50: 3.4 µM for the first, 0.818 µM for the second.

Compared with `CNC(=O)c1sc(-n2cnc3cc(OC)c(OC)cc32)cc1OCc1ccccc1C(F)(F)F`, `COC(=O)c1sc(-n2cnc3cc(OC)c(OC)cc32)cc1OCc1ccccc1C(F)(F)F` is lower in GI50: over 19 µM for the first, 3.72 µM for the second.

Going from `COc1ccc([C@@H]2[C@@H](Cl)C(=O)N2c2cc(OC)c(OC)c(OC)c2)cc1C` to `COc1cc(OC)c(/C=C/S(=O)(=O)Cc2ccc(OC)c(N)n2)c(OC)c1`, the GI50 falls from 0.0414 µM to under 0.01 µM.

First: CC(C)(C)n1cc(-c2ccnc(NCCCNS(=O)(=O)c3cccc4ccccc34)c2)c(-c2cccc(O)c2)n1
Second: CC(Nc1c(C#N)cnc2ccc(-c3cncc(O)c3)cc12)c1ccccc1 (configuration not stated)
The GI50 of the first is 2.2-fold higher: 2.04 µM for the first, 0.913 µM for the second.

`CC/C(=C/c1ccc(OC)cc1)[N+](=O)[O-]` and `COc1cccc(/C=C\C(=O)c2ccccc2)c1` are within 1.5-fold of each other in GI50: 1.83 µM for the first, 2.14 µM for the second.

Going from `COC(=O)[C@]12CC[C@@H](C)[C@H](C)[C@@H]1C1=CC[C@@H]3[C@@]4(C)C[C@@H](OC(C)=O)[C@H](OC(C)=O)[C@@](C)(COC(C)=O)[C@@H]4[C@H](O)C[C@@]3(C)[C@]1(C)CC2` to `CC[C@H](C)[C@H](NC(=O)CN(C)C)C(=O)N(C)[C@H](C[C@@H](OC(C)=O)c1nc(C(=O)NC23C4C5C2C2C3C4C52C(=O)OC)cs1)C(C)C` (some centres not stated), the GI50 falls from 0.832 µM to 0.147 µM (5.7-fold).

First: CC1CCc2c(C(=O)Nc3ncc(Cc4cccc([N+](=O)[O-])c4)s3)csc2C1 (configuration not stated)
Second: O=C(/C=C/c1ccco1)Nc1ncc(Cc2cc(Cl)ccc2Cl)s1
The GI50 of the first is 2.3-fold higher: 0.345 µM for the first, 0.15 µM for the second.

First: COc1cc(/C=N/NC(=O)c2cnn3c2NC(c2ccccc2)C3)ccc1OCc1ccccc1 (configuration not stated)
Second: COc1cc(/C=N\Nc2ccccc2)ccc1OC(=O)c1ccccc1
The GI50 of the first is 8.6-fold lower: 0.318 µM for the first, 2.74 µM for the second.

`O=C(CC1(O)C(=O)Nc2ccc(Cl)cc21)c1ccc(C(=O)NCC2CCC3(CC2)OOC2(CCCCC2)OO3)cc1` (configuration not stated) and `O=C(NCCN1CCOCC1)c1cc2c(Oc3ccc(NC(=O)C4(C(=O)Nc5ccc(F)cc5)CC4)cc3)ccnc2[nH]1` are within 1.5-fold of each other in GI50: 2.12 µM for the first, 2.31 µM for the second.

Compared with `COc1cc(C(=O)/C=C/c2c[nH]c3ccccc23)cc(OC)c1OC`, `COc1ccc(/C=C\c2cc(OC)c(OC)c(OC)c2)cc1NC(=O)/C=C/c1cc(OC)c(OC)c(OC)c1` is 21-fold higher in GI50: 0.0857 µM for the first, 1.82 µM for the second.

Going from `Cc1cnc(C(=O)Nc2nc3ccc(S(=O)(=O)Nc4ccc(C(C)(C)C)cc4)cc3[nH]2)cn1` to `CCNC(=O)N1CCc2cc(OC)c(OCCc3ccc(OC)cc3)cc2C1c1ccc([N+](=O)[O-])cc1C` (configuration not stated), the GI50 rises from 0.27 µM to 1.37 µM (5.1-fold).

Compared with `CCCCCn1sc(=O)n(Cc2ccc(CNC(=O)C(C)c3ccc(CC(C)C)cc3)cc2)c1=O` (configuration not stated), `CCCCCCCCCC(=O)Oc1ccc(/C(=C(/C)c2ccccc2)c2ccc(OCCN3CCCC3)cc2)cc1` is 7.7-fold higher in GI50: 0.945 µM for the first, 7.25 µM for the second.

`O=C1c2ccc3c4c(ccc(c24)C(=O)N1CCCCO)C(=O)N(CCCCO)C3=O` and `N#Cc1cnn(C(=O)c2nn(-c3ccc(Cl)cc3)cc2O)c1N` are within 1.5-fold of each other in GI50: 1.21 µM for the first, 0.948 µM for the second.

First: N#Cc1ccc2c(-c3ccnc(NC4CC4)n3)c(-c3ccc(F)cc3)nn2c1
Second: O=C1c2ccccc2-c2cn(Cc3ccccc3)c3cccc(c23)C1c1cccnc1 (configuration not stated)
The GI50 of the first is higher: over 24.2 µM for the first, 2 µM for the second.

First: CO/N=C1\CCc2c(sc(NC(=O)c3cccc(C(F)(F)F)c3)c2C(N)=O)C1
Second: COc1cc(F)c(F)c(Nc2ccc(I)cc2F)c1NS(=O)(=O)C1(CC(O)CO)CC1 (configuration not stated)
The GI50 of the first is 9.6-fold lower: 1.5 µM for the first, 14.4 µM for the second.

Going from `C#CCn1cccc1CNc1ccc(OC)cc1` to `COc1ccc(/C(=C(\c2ccccc2)[N+](=O)[O-])c2ccc(OCCN3CCCC3)cc2)cc1`, the GI50 falls from 14.2 µM to 1.75 µM (8.1-fold).

Going from `CC(=O)NC(C)(C)C(=O)N1CCC[C@H]1C(=O)NC(C)(C)C(=O)N[C@@H](C)C(=O)NC(C)(C)C(=O)NC(C)(C)C(=O)N[C@@H](CCC(N)=O)C(=O)NC(C)(C)C(=O)N[C@H](C(=O)NC(C)(C)C(=O)NCC(=O)N[C@@H](CC(C)C)C(=O)NC(C)(C)C(=O)N1CCC[C@H]1C(=O)N[C@H](C(=O)NC(C)(C)C(=O)NC(C)(C)C(=O)N[C@@H](CCC(N)=O)C(=O)N[C@@H](CCC(N)=O)C(=O)N[C@H](CO)Cc1ccccc1)C(C)C)C(C)C` (Ac-[Aib]P[Aib]A[Aib][Aib]Q[Aib]V[Aib]GL[Aib]PV[Aib][Aib]QQ[Phe(ol)]) to `C#Cc1nc(C2=C(C)/C(=N/OCc3ccccc3)CC2)cs1`, the GI50 rises from 0.209 µM to 17.8 µM (85-fold).

Work on `Cc1cc2nc3c4cc(C#N)ccc4n(CCN(C)C)c3nc2cc1C` yielded a GI50 of 1.33 µM.

First: Nc1nc(SCC#CCCl)c2[nH]cnc2n1
Second: ClC/C=C/CSc1ncnc2nc[nH]c12
The TGI of the first is lower: 6.38 µM for the first, over 100 µM for the second.

`Oc1ccccc1/C=N\NC(=S)Nc1ccc(F)cc1` and `NS(=O)(=O)c1cccc(Nc2cc(-c3ccc(F)cc3)[nH]n2)c1` cannot be ordered by TGI: 26.5 µM for the first, over 25 µM for the second.

Compared with `Cc1ccc(C)c(N2CCN(c3ccncc3N)CC2)c1`, `CN1CCN(Cc2ccc(NC(=O)c3cncc(C#Cc4c(N)ncc5ccccc45)c3)cc2C(F)(F)F)CC1` is 11-fold lower in TGI: 18 µM for the first, 1.63 µM for the second.

`CNC(=O)c1sc(-n2cnc3cc(OC)c(OC)cc32)cc1OCc1ccccc1C(F)(F)F` and `COC(=O)c1sc(-n2cnc3cc(OC)c(OC)cc32)cc1OCc1ccccc1C(F)(F)F` cannot be ordered by TGI: over 25 µM for the first, over 25 µM for the second.

`COc1ccc([C@@H]2[C@@H](Cl)C(=O)N2c2cc(OC)c(OC)c(OC)c2)cc1C` and `COc1cc(OC)c(/C=C/S(=O)(=O)Cc2ccc(OC)c(N)n2)c(OC)c1` cannot be ordered by TGI: over 100 µM for the first, over 100 µM for the second.

Going from `CC(C)(C)n1cc(-c2ccnc(NCCCNS(=O)(=O)c3cccc4ccccc34)c2)c(-c2cccc(O)c2)n1` to `CC(Nc1c(C#N)cnc2ccc(-c3cncc(O)c3)cc12)c1ccccc1` (configuration not stated), the TGI falls from 5.39 µM to 3.43 µM (1.6-fold).

Compared with `CC/C(=C/c1ccc(OC)cc1)[N+](=O)[O-]`, `COc1cccc(/C=C\C(=O)c2ccccc2)c1` is 1.8-fold higher in TGI: 3.63 µM for the first, 6.49 µM for the second.

`COC(=O)[C@]12CC[C@@H](C)[C@H](C)[C@@H]1C1=CC[C@@H]3[C@@]4(C)C[C@@H](OC(C)=O)[C@H](OC(C)=O)[C@@](C)(COC(C)=O)[C@@H]4[C@H](O)C[C@@]3(C)[C@]1(C)CC2` and `CC[C@H](C)[C@H](NC(=O)CN(C)C)C(=O)N(C)[C@H](C[C@@H](OC(C)=O)c1nc(C(=O)NC23C4C5C2C2C3C4C52C(=O)OC)cs1)C(C)C` (some centres not stated) cannot be ordered by TGI: 46 µM for the first, over 33.2 µM for the second.

`CC1CCc2c(C(=O)Nc3ncc(Cc4cccc([N+](=O)[O-])c4)s3)csc2C1` (configuration not stated) and `O=C(/C=C/c1ccco1)Nc1ncc(Cc2cc(Cl)ccc2Cl)s1` cannot be ordered by TGI: over 100 µM for the first, over 46 µM for the second.

Compared with `COc1cc(/C=N/NC(=O)c2cnn3c2NC(c2ccccc2)C3)ccc1OCc1ccccc1` (configuration not stated), `COc1cc(/C=N\Nc2ccccc2)ccc1OC(=O)c1ccccc1` is 16-fold higher in TGI: 2.16 µM for the first, 34.8 µM for the second.

Going from `O=C(CC1(O)C(=O)Nc2ccc(Cl)cc21)c1ccc(C(=O)NCC2CCC3(CC2)OOC2(CCCCC2)OO3)cc1` (configuration not stated) to `O=C(NCCN1CCOCC1)c1cc2c(Oc3ccc(NC(=O)C4(C(=O)Nc5ccc(F)cc5)CC4)cc3)ccnc2[nH]1`, the TGI rises from 5.66 µM to 13.6 µM (2.4-fold).

First: COc1cc(C(=O)/C=C/c2c[nH]c3ccccc23)cc(OC)c1OC
Second: COc1ccc(/C=C\c2cc(OC)c(OC)c(OC)c2)cc1NC(=O)/C=C/c1cc(OC)c(OC)c(OC)c1
The TGI of the first is 4.1-fold lower: 1.61 µM for the first, 6.66 µM for the second.

Compared with `Cc1cnc(C(=O)Nc2nc3ccc(S(=O)(=O)Nc4ccc(C(C)(C)C)cc4)cc3[nH]2)cn1`, `CCNC(=O)N1CCc2cc(OC)c(OCCc3ccc(OC)cc3)cc2C1c1ccc([N+](=O)[O-])cc1C` (configuration not stated) is 2.8-fold higher in TGI: 1.73 µM for the first, 4.78 µM for the second.

First: CCCCCn1sc(=O)n(Cc2ccc(CNC(=O)C(C)c3ccc(CC(C)C)cc3)cc2)c1=O (configuration not stated)
Second: CCCCCCCCCC(=O)Oc1ccc(/C(=C(/C)c2ccccc2)c2ccc(OCCN3CCCC3)cc2)cc1
The TGI of the first is 6-fold lower: 2.45 µM for the first, 14.7 µM for the second.

Compared with `O=C1c2ccc3c4c(ccc(c24)C(=O)N1CCCCO)C(=O)N(CCCCO)C3=O`, `N#Cc1cnn(C(=O)c2nn(-c3ccc(Cl)cc3)cc2O)c1N` is 4.7-fold higher in TGI: 3.22 µM for the first, 15.1 µM for the second.

`N#Cc1ccc2c(-c3ccnc(NC4CC4)n3)c(-c3ccc(F)cc3)nn2c1` and `O=C1c2ccccc2-c2cn(Cc3ccccc3)c3cccc(c23)C1c1cccnc1` (configuration not stated) cannot be ordered by TGI: over 25 µM for the first, 37.6 µM for the second.

Going from `CO/N=C1\CCc2c(sc(NC(=O)c3cccc(C(F)(F)F)c3)c2C(N)=O)C1` to `COc1cc(F)c(F)c(Nc2ccc(I)cc2F)c1NS(=O)(=O)C1(CC(O)CO)CC1` (configuration not stated), the TGI rises from 5.91 µM to 47.7 µM (8.1-fold).

First: C#CCn1cccc1CNc1ccc(OC)cc1
Second: COc1ccc(/C(=C(\c2ccccc2)[N+](=O)[O-])c2ccc(OCCN3CCCC3)cc2)cc1
The TGI of the first is 14-fold higher: 60.5 µM for the first, 4.27 µM for the second.

Going from `CC(=O)NC(C)(C)C(=O)N1CCC[C@H]1C(=O)NC(C)(C)C(=O)N[C@@H](C)C(=O)NC(C)(C)C(=O)NC(C)(C)C(=O)N[C@@H](CCC(N)=O)C(=O)NC(C)(C)C(=O)N[C@H](C(=O)NC(C)(C)C(=O)NCC(=O)N[C@@H](CC(C)C)C(=O)NC(C)(C)C(=O)N1CCC[C@H]1C(=O)N[C@H](C(=O)NC(C)(C)C(=O)NC(C)(C)C(=O)N[C@@H](CCC(N)=O)C(=O)N[C@@H](CCC(N)=O)C(=O)N[C@H](CO)Cc1ccccc1)C(C)C)C(C)C` (Ac-[Aib]P[Aib]A[Aib][Aib]Q[Aib]V[Aib]GL[Aib]PV[Aib][Aib]QQ[Phe(ol)]) to `C#Cc1nc(C2=C(C)/C(=N/OCc3ccccc3)CC2)cs1`, the TGI rises from 2.36 µM to 94.7 µM (40-fold).

Going from `O=C(NOCCO)c1ccc2cncn2c1Nc1ccc(I)cc1F` to `Cc1cc2nc3c4cc(C#N)ccc4n(CCN(C)C)c3nc2cc1C`, the TGI falls from over 100 µM to 3.91 µM.

`O=C(NOCCO)c1ccc2cncn2c1Nc1ccc(I)cc1F` was tested, and the GI50 was > 10 µM and 22.3 µM.
For `COc1cc([C@@H]2c3cc4c(cc3[C@@H](OC3OC5COC(C)OC5C(O)C3O)[C@H]3COC(=O)[C@H]23)OCO4)cc(OC)c1O` (some centres not stated), the GI50 was 2.73 µM and 2.12 µM.

With `COc1cc([C@@H]2c3cc4c(cc3[C@@H](OC3OC5COC(C)OC5C(O)C3O)[C@H]3COC(=O)[C@H]23)OCO4)cc(OC)c1O` (some centres not stated) the TGI was 22.3 µM and 18.7 µM.
